Reference: patent publication US20250170100A1, “MONOACYLGLYCEROL LIPASE INHIBITORS AND USE THEREOF FOR THE TREATMENT OF ANXIETY AND RELATED CONDITIONS” (Psy Therapeutics, Inc., priority 2021, published 2025)
pIC50: −log10 of the molar value. Read-outs that look alike come from different tables or passages of the source.

Experiments:
human MAGL [1] = molecular target: T1, human MAGL (Homo sapiens (Human), UniProt Q99685); assay: MAGL inhibition potency assay with 4NPA substrate (methods of Table C); assay type: biochemical; conditions: Method 1: Reaction Biology MAGL enzyme, 6 nM; read-out: MAGL Potency (Detection Method)
From the text: Cayman's Monoacylglycerol Lipase Inhibitor Screening Assay provides a method for screening human MAGL inhibitors. MAGL hydrolyzes 4-nitrophenylacetate resulting in a yellow product, 4-nitrophenol, with an absorbance of 405-412 nm. The monoacylglycerol lipase inhibitor screening assay kit from Cayman Chemical was used to measure the MAGL potency for the compounds in Table 3 and Table 4. Cayman's Monoacylglycerol Lipase Inhibitor Screening Assay provides a method for screening human MAGL inhibitors. MAGL hydrolyzes 4-nitrophenylacetate resulting in a yellow product, 4-nitrophenol, with an absorbance of 405-412 nm. MAGL Inhibition was measured by the following assay. Monoacylglycerol Lipase (MAGL) inhibition was measured using recombinant MAGL enzyme (aa 2-303 RBC, internal preparation) and the substrate 4-Nitrophenyl acetate (4NPA) (Sigma-Aldrich, N8130). Hydrolysis of the substrate in the presence of the enzyme was measured by absorbance at 405 nm. 10 μL of assay buffer (10 mM Tris pH 7.5, 1 mM EDTA, 0.9% DMSO) was added to a black 384-well non-binding plate with clear bottom (Greiner, 781906) for each reaction. […] DMSO control wells were included for reference. A 10.8 nM (1.8×) MAGL mix in assay buffer was prepared, with […] added to each reaction well, for a final assay concentration of 6 nM. No enzyme wells received 25 μL of buffer. Plate was incubated at room temperature for 30 minutes. 35 mM solution of 4NPA in methanol was prepared daily. A 4.5×4NPA substrate solution was prepared in assay buffer and 10 μL was added to each reaction well, for a final assay concentration of 0.25 mM. Plate was spun for 1 minute at 1000 rpm before measuring absorbance using a CLARIOstar plate reader (BMG Labtech). A kinetic reading at 405 nm was done every minute for 30 minutes. Data was analyzed using the linear slope of the reaction progress curve and the average of the no-enzyme wells (background) was subtracted from the data. The background-subtracted slope data was converted to % activity using the average of wells with enzyme and DMSO vehicle. IC50s were calculated using GraphPad software (Sigmoidal dose response, variable slope equation). […] Table 5 provides potency measurements of MAGL inhibition measured using the Potency Assay of Example 18 above, with the following modifications described in Table C. [table]
Target sequence in this assay (Q99685 2-303): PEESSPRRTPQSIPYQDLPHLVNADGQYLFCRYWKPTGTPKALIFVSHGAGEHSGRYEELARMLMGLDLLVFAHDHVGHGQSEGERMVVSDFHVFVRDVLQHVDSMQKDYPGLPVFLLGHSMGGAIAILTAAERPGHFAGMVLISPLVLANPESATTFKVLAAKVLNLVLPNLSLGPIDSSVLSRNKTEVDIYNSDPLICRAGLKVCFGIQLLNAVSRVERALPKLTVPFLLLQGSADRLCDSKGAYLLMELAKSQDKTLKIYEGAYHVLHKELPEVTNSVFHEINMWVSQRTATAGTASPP

human MAGL [2] = molecular target: T1, human MAGL; assay: MAGL reversible inhibition assay (washout); assay type: biochemical
Experimental: The reversible mechanism of MAGL inhibition of a test compound of Formula (I) can be determined. Flag-tagged MAGL enzyme will be immobilized on anti-Flag beads. Immobilized enzyme will be incubated+/−inhibitor at a dose that produces complete inhibition. Colorimetric substrate (4-NPA) will be added and the reaction monitored on a plate reader for 30 minutes to verify complete inhibition. Immobilized enzyme will then be washed thoroughly to remove the inhibitor, and fresh substrate will be added. The reaction will be monitored for an additional 30 minutes; returning enzymatic activity will indicate reversibility of inhibition.
MAGL enzyme was incubated for 30 minutes in the presence of 40× the IC50 concentration of inhibitor. Enzyme+inhibitor mix was then diluted 40-fold so that the final concentration of the inhibitor equaled the IC50 concentration. Substrate was added and the reaction was monitored for 30 minutes.
Target sequence in this assay (Q99685 whole entry): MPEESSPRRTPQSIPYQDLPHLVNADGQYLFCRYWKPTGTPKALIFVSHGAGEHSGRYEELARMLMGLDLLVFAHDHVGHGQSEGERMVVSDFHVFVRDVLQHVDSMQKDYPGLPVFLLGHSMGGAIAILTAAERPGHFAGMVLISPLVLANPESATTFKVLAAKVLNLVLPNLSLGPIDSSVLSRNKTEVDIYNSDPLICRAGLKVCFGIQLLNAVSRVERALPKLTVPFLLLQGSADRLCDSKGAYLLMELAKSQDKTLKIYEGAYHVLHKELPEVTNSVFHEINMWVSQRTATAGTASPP

2-AG levels in brain = assay: 2-AG estimation in mouse brain after single intraperitoneal administration of Compound 74; assay type: in vivo, male C57BL/6 mice; conditions: for Mean 2AG Brain Concentration: 0.5 h
Experimental: (§1) This experiment was performed to determine plasma pharmacokinetics and estimate 2-AG levels in male C57BL/6 mice brain following a single intraperitoneal administration of Compound-74 (Dose: 5, 15, 50 and 150 mg/kg). The experiment was repeated at 150 mg/kg on 3 separate test dates to obtain the data shown in FIG. 1A (plasma and brain concentration of Compound 74 30 minutes after IP injection), and on the first and third test dates to obtain the data shown in FIG. 1B (brain concentration of 2-AG30 minutes after IP injection of Compound 74).
(§2) Study Design: A total of thirty male mice were used into the study and divided in to five groups with six mice in each group (n=6 mice/group/treatment design). Animals in Group 1 to Group 4 were administered intraperitoneally with Compound 74 solution formulation at 5, 15, 50 and 150 mg/kg dose, respectively. Animals in Group 5 were administered intraperitoneally with vehicle at 2 mL/kg dose. Blood and brain samples were collected at 0.5 h post dose. Mice were euthanized by cervical dislocation and brain samples were dissected rapidly and snap frozen in liquid nitrogen, weighed and homogenized in 2 mL of acetonitrile containing 2-AGd5. Blood samples were centrifuged at 4000 rpm for 10 minutes at 4° C. Plasma was harvested and separated in pre-labeled tubes. All samples were stored below −70° C. until bioanalysis.
(§3) Analysis: Brain samples were processed for 2-AG estimation. 2-AG levels were the detected values. Plasma concentrations were determined by fit for purpose LC-MS/MS method. LLOQ: 5.09 ng/mL (Plasma and brain)

[3] = Plasma and brain concentrations after single intraperitoneal administration of Compound 74; assay type: in vivo, male C57BL/6 mice; conditions: male, C57BL/6, mouse; for Kp at 0.5 h: brain/plasma, read-out: Brain Plama Ratio (Kp) range
Experimental: as §1, §2, §3

human MAGL [4] = molecular target: T1, human MAGL; assay: MAGL inhibition potency assay with 4NPA substrate (methods of Table C); assay type: biochemical; conditions: read-out: MAGL Potency (Detection Method)
Target sequence in this assay (Q99685 2-303): as the sequence (Q99685 2-303) above

## Cc1cc(C2CC3(C2)CN(C(=O)c2cc(O)ccc2F)C3)n(-c2ccccc2C)n1 [Compound 74, (2-fluoro-5-hydroxyphenyl) (6-(3-methyl-1-(o-tolyl)-1H-pyrazol-5-yl)-2-azaspiro[3.3]heptan-2-yl) methanone]
Human MAGL [1]
  pIC50: > 7.30
Human MAGL [2]; pre-washout compound concentration: 1 μM
  A: degree to which MAGL enzymatic activity returned following washout: 162
Human MAGL [2]; relative to control, immediately following a 30 minute washout
  B: % MAGL activity returning after washout: >50%
2-AG levels in brain; IP 5 mg/kg
  Mean 2AG Brain Concentration: 13.13 nmol/g
2-AG levels in brain; IP 15 mg/kg
  Mean 2AG Brain Concentration: 13.46 nmol/g
2-AG levels in brain; IP 50 mg/kg
  Mean 2AG Brain Concentration: 42.35 nmol/g
2-AG levels in brain; IP 150 mg/kg
  Mean 2AG Brain Concentration: 120.02 nmol/g
2-AG levels in brain; IP 5 and 15 mg/kg dose
  levels of 2-AG compared to baseline (vehicle treatment): elevated slightly
2-AG levels in brain; IP 50 and 150 mg/kg dose groups
  levels of 2-AG compared to baseline (vehicle treatment): significant increase
[3]; brain, IP 5 mg/kg, read-out: Brain concentration range
  concentration at 0.5 h: 16 to 19 ng/g
[3]; brain, IP 15 mg/kg, read-out: Brain concentration range
  concentration at 0.5 h: 25 to 67 ng/g
[3]; brain, IP 50 mg/kg, read-out: Brain concentration range
  concentration at 0.5 h: 34 to 1250 ng/g
[3]; brain, IP 150 mg/kg, read-out: Brain concentration range
  concentration at 0.5 h: 2410 to 12100 ng/g
[3]; IP 5 mg/kg
  Kp at 0.5 h: 0.51 to 0.68
[3]; IP 15 mg/kg
  Kp at 0.5 h: 0.16 to 0.44
[3]; IP 50 mg/kg
  Kp at 0.5 h: 0.06 to 0.08
[3]; IP 150 mg/kg
  Kp at 0.5 h: 0.07 to 0.2
[3]; plasma, IP 5 mg/kg, read-out: Plasma concentration range
  concentration at 0.5 h: 12 to 186 ng/mL
[3]; plasma, IP 15 mg/kg, read-out: Plasma concentration range
  concentration at 0.5 h: 70 to 414 ng/mL
[3]; plasma, IP 50 mg/kg, read-out: Plasma concentration range
  concentration at 0.5 h: 447 to 14900 ng/mL
[3]; plasma, IP 150 mg/kg, read-out: Plasma concentration range
  concentration at 0.5 h: 34900 to 70300 ng/mL
Human MAGL [4]; Method 2: Cayman Chemical MAGL enzyme, 10 nM
  pIC50: > 7.30
Human MAGL [4]; Method 3: Reaction Biology MAGL enzyme, 10 nM
  pIC50: > 7.30
Human MAGL [4]; Method 4: Cayman Chemical MAGL enzyme, 15 nM
  pIC50: 6.82 to 7.30
Human MAGL [4]; Method 5: Cayman Chemical MAGL enzyme, 25 nM
  pIC50: > 7.30
